Results on three compounds are retold here after PMC8399565, “Fluorescence Cross-Correlation Spectroscopy Yields True Affinity and Binding Kinetics of Plasmodium Lactate Transport Inhibitors” (Pharmaceuticals, 2021).

As usually defined, the Ki is the dissociation constant of the complex between target and ligand, obtained from inhibition or displacement. The IC50 is the concentration needed to halve the response being measured. Usually EC50 stands for the concentration needed to bring the measured effect to its halfway point.

Entries after “also recorded” stand apart in the source; their conditions may differ.

The subject of one assay is PfFNT. Conditions: cited from earlier work; for IC50: PfFNT expressed in Saccharomyces cerevisiae yeast.
In the next assay the target is T1, PfFNT-GFP (Plasmodium falciparum, UniProt O77389).
T1 construct: The DNA of full-length PfFNT from Plasmodium falciparum 3D7 was cloned as a C-terminal GFP fusion; expressed in transfected cells; intact cells for imaging, LMNG-solubilized membranes or lysates for FCCS
Put plainly: FCCS loss of signal screening competition assay. Format: binding. As to the method:
With a loss of signal screening assay using the GFP fusion of PfFNT wildtype and BH296-DY647 as the interaction pair, we set out to test the FCCS approach on a selection of 26 compounds that were validated before using functional lactate transport assays in yeast. In more detail, HEK cell lysates were adjusted to a PfFNT-GFP concentration of 4 nM and mixed with fluorescence-labeled BH296-DY647 at a final concentration of 80 nM, approximating the previously determined KD-value of this interaction. A total of 20 µL of the mix was then dispensed into the wells of a glass-bottom 384 microtiter plate. […] The wells were then analyzed by FCCS, Ki values were determined, and compared by a scatter plot to the IC50 values from the previous functional assays in yeast (Figure 6). […]
FCCS measurements were conducted in 384-well glass-bottom plates (cat. no PS96B-G175, SWISSCI, Switzerland) using an Insight plate reader (Evotec Technologies, Germany) fitted with a U-Apo300 40x water immersion lens, NA 1.15 (Olympus, Japan). […] Fluorescence fluctuations were recorded for 8 s with 12 repetitions and analyzed afterward using FCS+plus Analyze 1.1P (Evotec technologies, Version 1.2.5g). […] All KD and IC50 values, as well as kinetic parameters, were determined from three independently repeated experiments. […]

In assay [1] the test system is Plasmodium falciparum 3D7 parasites. On the set-up: method as in PMID 23798988. As to conditions: in vitro; cited from earlier work.
The subject of assay [2] is resistant parasites that carried a single PfFNT G107S point mutation. On the set-up: method as in PMID 23798988. Conditions: cited from earlier work.
The next assay concerns PfFNT G107S. On the set-up: method as in PMID 23798988. As to conditions: PfFNT G107S point mutation; cited from earlier work.

T1 sequence (O77389 whole entry, the tested form may be a part): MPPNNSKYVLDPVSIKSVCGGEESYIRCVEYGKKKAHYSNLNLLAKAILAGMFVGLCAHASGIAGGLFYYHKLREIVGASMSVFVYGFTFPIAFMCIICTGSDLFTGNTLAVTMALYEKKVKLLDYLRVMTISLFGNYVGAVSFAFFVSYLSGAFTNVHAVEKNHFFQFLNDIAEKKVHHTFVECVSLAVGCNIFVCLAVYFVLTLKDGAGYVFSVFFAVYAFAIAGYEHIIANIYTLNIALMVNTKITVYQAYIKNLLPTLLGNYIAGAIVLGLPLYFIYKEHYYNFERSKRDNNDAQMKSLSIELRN

With `O=C(/C=C(\O)C(F)(F)C(F)(F)F)c1ccc(C(=O)/C=C(\O)C(F)(F)C(F)(F)F)cc1` [BH454], in the assay with PfFNT (validated before), the “activity in functional yeast lactate transport assay” value was “little activity; also recorded: not very effective”. For the same compound, the Ki at PfFNT-GFP was less than 0.1 µM. Also, the “Ki (affinity) from FCCS competition screen” value at PfFNT-GFP (4 nM PfFNT-GFP, 80 nM BH296-DY647, 1 h room temperature) is reported as “double-digit nanomolar range”.
With `O=C1CC(O)(C(F)(F)C(F)(F)F)Oc2ccccc21` (stereo not drawn) [MMV000972, reference compound], the 50% inhibitory concentration (IC50) in the assay on PfFNT was 0.17 µM. In assay [1], the EC50 is 1.7 µM.
Regarding `COc1ccc2c(c1)OC(O)(C(F)(F)C(F)(F)F)CC2=O` (stereo not drawn) [MMV007839], the 50% effective concentration (EC50) in assay [2] was 35 µM; in assay [1], 0.14 µM. Moreover, the IC50 in the assay on PfFNT was 0.17 µM; in the assay with PfFNT G107S, 21 µM.
